In PMC6900016, “Synthesis of Indomorphan Pseudo‐Natural Product Inhibitors of Glucose Transporters GLUT‐1 and ‐3” (Angewandte Chemie (International Ed. in English), 2019):

Legend:
[1] = system: T1, CHO; assay: cells; design: 2DG uptake in transfected CHO cells, resazurin/diaphorase fluorescence; conditions: Cricetulus griseus, 0.5 h
T1 construct: transiently transfected with plasmid
Experimental: Transient overexpression of GLUT-1-4 in CHO cells and 2DG assay[7] 1x10^6 CHO cells were seeded 10 cm cell culture plates. After overnight incubation, cells were transfected with the different using Lipofectamine 3000 according to the supplier's instructions. Briefly, DNA-lipid SUPPORTING INFORMATION 264 complexes (100 µg plasmid DNA, DNA:lipid ratio 1:2) were prepared in OptiMEM and then added to the cells. In the case of GLUT-4-transfected cells, Insulin (100 µg/mL) was added to the transfection medium. After incubation for 48 h cells were either reseeded (40,000 cell/well) in 96-well plates for monitoring glucose uptake or cells were directly lysed and protein expression was subsequently analysed by means of immunoblotting. In the case of GLUT-4 transfected cells, Insulin (100 µg/mL) was added to the culture medium medium. The 2DG assay was performed as described above (low throughput resazurin-based assay). In the case of GLUT-4 transfected cells, Insulin (100 µg/mL) was added to the buffer. Resazurin-based 2DG uptake assay (low throughput) The 2DG uptake assay was performed by the Yamamoto et al. procedure.[6] 40000 cells/well were seeded in black CellBIND 96-well plates with clear bottom (Corning) and allowed to attach overnight. Cells were washed three times with KRB buffer (20 mM Hepes, 5 mM KH2PO4, 1 mM MgCl2, 1 mM CaCl2, 136 mM NaCl, 4.7 mM KCl, pH 7.4) containing 0.1% BSA and then incubated with the compounds or vehicle control and 1 mM 2DG for 30 min as described earlier. After washing three times with KRB buffer, the plates were sealed with adhesive aluminum foil and cells were lysed with 60 µL 1% CHAPS in 0.06 M HCl. Subsequently, plates were heated using microplate heater for 15 min at 65°C. After cooling down to room temperature, 20 µL 0.5 M Tris were added to neutralize the acid, before 80 µL of detection enzyme mixture were added. The detection enzyme solution contained 25 µM resazurin sodium salt (Acros), 6 U/mL glucose-6-phosphate dehydrogenase (G8404; Sigma Aldrich), 0.2 U/mL diaphorase from Chlostridium kluyveri (D5540; Sigma Aldrich) and 0.1mM NADP+ (Applichem) in 0.125 mM Tris, pH 8.4 with 0.1% BSA. After incubation for 2 h at room temperature, fluorescence intensity was measured at ex/em 530/590 nm using a Tecan M200 plate reader. Data were normalized to the respective DMSO

[2] = system: CHO; assay: cells; design: 2-deoxyglucose uptake inhibition, resazurin/diaphorase, mock-transfected CHO cells; conditions: Cricetulus griseus, 0.5 h, empty vector
Experimental: Resazurin-based 2DG uptake assay (low throughput) The 2DG uptake assay was performed by the Yamamoto et al. procedure.[6] 40000 cells/well were seeded in black CellBIND 96-well plates with clear bottom (Corning) and allowed to attach overnight. Cells were washed three times with KRB buffer (20 mM Hepes, 5 mM KH2PO4, 1 mM MgCl2, 1 mM CaCl2, 136 mM NaCl, 4.7 mM KCl, pH 7.4) containing 0.1% BSA and then incubated with the compounds or vehicle control and 1 mM 2DG for 30 min as described earlier. After washing three times with KRB buffer, the plates were sealed with adhesive aluminum foil and cells were lysed with 60 µL 1% CHAPS in 0.06 M HCl. Subsequently, plates were heated using microplate heater for 15 min at 65°C. After cooling down to room temperature, 20 µL 0.5 M Tris were added to neutralize the acid, before 80 µL of detection enzyme mixture were added. The detection enzyme solution contained 25 µM resazurin sodium salt (Acros), 6 U/mL glucose-6-phosphate dehydrogenase (G8404; Sigma Aldrich), 0.2 U/mL diaphorase from Chlostridium kluyveri (D5540; Sigma Aldrich) and 0.1mM NADP+ (Applichem) in 0.125 mM Tris, pH 8.4 with 0.1% BSA. After incubation for 2 h at room temperature, fluorescence intensity was measured at ex/em 530/590 nm using a Tecan M200 plate reader. Data were normalized to the respective DMSO Transient overexpression of GLUT-1-4 in CHO cells and 2DG assay[7] […]

[3] = system: HEPG2; assay: cells; design: Cell growth inhibition, sulforhodamine B total protein staining; conditions: Homo sapiens, HepG2; 72 h growth; read-out: Cell growth inhibition IC50/µM
Procedure, shortened: (§1)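 72 h exposure of a 94-cell-line panel to Glupin; growth measured by sulforhodamine B total-protein staining after TCA fixation (10% adherent, 50% suspension/semi-adherent, 1 h at 4 °C). IC50 derived from growth inhibition.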

[4] = system: CLS439; assay: cells; design: Cell growth inhibition, sulforhodamine B total protein staining; conditions: 72 h growth; read-out: Cell growth inhibition IC50/µM
Procedure, shortened: as §1

[5] = molecular target: T2, GLUT-3 (Homo sapiens, UniProt P11169); assay: CETSA/thermal proteome profiling in SW480 lysate (ΔTm […] °C by MS, […] °C by immunoblot, […]); 2DG uptake IC50 in DLD-1 GLUT1(-/-) cells; shift on GLUT-3 overexpression in CHO; format: cell-based
T2 construct: gene SLC2A3
T2 sequence (P11169 whole entry): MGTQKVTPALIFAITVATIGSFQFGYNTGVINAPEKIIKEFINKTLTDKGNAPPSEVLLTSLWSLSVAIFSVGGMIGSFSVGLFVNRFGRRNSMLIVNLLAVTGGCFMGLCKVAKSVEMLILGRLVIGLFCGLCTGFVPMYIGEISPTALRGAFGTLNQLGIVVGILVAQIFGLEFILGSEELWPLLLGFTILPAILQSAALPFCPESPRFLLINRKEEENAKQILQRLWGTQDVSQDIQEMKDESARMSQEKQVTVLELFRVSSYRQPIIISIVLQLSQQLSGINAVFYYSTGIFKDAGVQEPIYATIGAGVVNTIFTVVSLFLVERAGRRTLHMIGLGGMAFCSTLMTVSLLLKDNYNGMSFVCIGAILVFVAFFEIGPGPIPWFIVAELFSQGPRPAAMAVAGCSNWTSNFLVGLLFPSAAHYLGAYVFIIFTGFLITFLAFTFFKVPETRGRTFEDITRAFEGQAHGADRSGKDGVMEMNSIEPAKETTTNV

Compound: CCOC(=O)Cn1c2c(c3ccccc31)C[C@@H]1C[C@H]2C(OC)CN1C(=O)c1cccnc1SC (single isomer, unassigned; (+)) [(+)-5a, Glupin]
- IC50 ([1]; pCMV-SPORT6-GLUT3): 68 ± 7.2 nM
- IC50 ([1]; pTCN-GLUT1): 162 ± 14 nM
- IC50 ([1]; pTCN-GLUT2): 19.7 ± 2.4 nM
- IC50 ([1]; pTCN-GLUT4): 18.9 ± 3.2 nM
- IC50 ([2]; pCMV-SPORT6, 2DG uptake): 19.1 ± 2.9 nM
- IC50 ([2]; pTCN, 2DG uptake): 19.2 ± 2.1 nM
- IC50 [3]: > 30 µM
- IC50 [4]: 0.24 µM
- IC50 [5]: 11.4 ± 1.6 nM
